Experimental data published in PMC3353486, “Fluorescence Correlation Spectroscopy in Drug Discovery: Study of Alexa532-Endothelin 1 Binding to the Endothelin ETA Receptor to Describe the Pharmacological Profile of Natural Products” (The Scientific World Journal, 2012).

Legend:
[1] = test system: Rat vascular smooth muscle A10 cells; test: Inositol phosphate (IP1) production, IP-One ELISA, A10 cells; format: cell-based; conditions: 0.5 to 50 nM ligand, 30 min; for inositol phosphate (IP1) production, dose-dependent increase up to: ELISA read at 450 nm, mean ± SEM of eight measurements
Experimental: The inositol phosphate determination assay was performed using the IP-One ELISA Kit for adherent cells (CISBIO, Cedex, France) following the operation instructions. […] The test substances were diluted in the stimulation buffer to a final concentration ranging from 0.5 to 50 nM. Cells were incubated for 30 minutes before their lysis. The supernatant was transferred into the ELISA plate where the competitive immunoassay took place. After the reaction was stopped, the optical density corresponding to IP accumulation was read at 450 nm with Bio-Rad Microplate Reader (Bio-Rad, Munich, Germany).
Data are presented as the mean ± SEM of eight measurements.

endothelin ETA receptor = target: T1, endothelin ETA receptor (Rattus norvegicus, UniProt P26684); test: FCS binding of Alexa532-ET1 to ETA receptor on living A10 cells (total, saturation, lateral mobility)
T1 construct: endothelin ETA receptor-ligand complex alone and under the influence of a semisynthetic selective antagonist and a fungal extract on living A10 cells; endogenous in cells; host or cells: A10 cells
T1 sequence (P26684 21-426): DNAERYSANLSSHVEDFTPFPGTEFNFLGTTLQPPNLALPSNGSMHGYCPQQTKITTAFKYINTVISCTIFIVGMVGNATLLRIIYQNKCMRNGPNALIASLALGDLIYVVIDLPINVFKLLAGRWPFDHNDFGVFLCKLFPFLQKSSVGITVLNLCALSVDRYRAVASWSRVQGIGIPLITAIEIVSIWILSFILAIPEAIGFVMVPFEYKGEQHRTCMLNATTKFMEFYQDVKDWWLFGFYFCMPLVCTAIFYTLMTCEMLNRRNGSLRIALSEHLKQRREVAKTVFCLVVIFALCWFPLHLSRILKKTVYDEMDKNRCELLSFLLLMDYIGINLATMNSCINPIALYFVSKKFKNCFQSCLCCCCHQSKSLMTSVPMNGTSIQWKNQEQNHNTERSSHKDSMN
Experimental: FCS measurements were performed via confocal illumination of a volume element of 0.19 fL in a ConfoCor 1 instrument (Zeiss, Jena, Germany) with a C-Apochromat 63x, NA 1.2 objective for water immersion. A dichroic filter and a band-pass filter (FT 540, EF 530–600) (Andover, Salem, MA) separated the excitation light from the emitted fluorescence. Sample excitation was performed with the 514 nm line of an argon laser. The power of the laser beam entering the sample was 2.4 kW/cm^2. The intensity fluctuations were detected by an avalanche photodiode (SPCM-AQ Series, PerkinElmer Optoelectronics, Fremont, ON) and were correlated with a digital hardware correlator (ALV-5000, ALV, Langen, Germany). To calibrate the volume element of observation for the experiments, a defined concentration of tetramethylrhodamine (TMR) was used. From the determined diffusion time constant of TMR and the diffusion coefficient D of 280 μm^2/s, the radio ω 0 (0.20 μm) and z 0 (1.08 μm) of the volume element were determined. Volume element positioning to the upper membrane of the cell was performed by motor-aided scanning through the cell in the z-direction (optoelectronical DC-servodrives, resolution of 0.1 μm). For the FCS experiments, the focus was placed at half maximal of fluorescence intensity at the upper membrane, taking in fast diffusing free ligand and slow diffusing receptor-ligand complexes in the plasma membrane.
A10 cells were seeded at a density of 5.0 × 10^4 on 18 mm poly-D-lysine-coated coverslips. The coverslips were placed in a Nunc 12 well plate, and the cells were cultured for 7 days in Dulbecco's Modified Essential Media supplemented with L-glutamine (2 mM), 1% of a solution containing 10000 I.U./mL penicillin and 10000 μg/mL streptomycin (GIBCO, Invitrogen, Karlsruhe, Germany) and 20% foetal calf serum. The cells were grown in 5% CO2 at 37°C until confluence was reached.
Prior to the FCS measurements, cells were washed three times with Locke's solution (5 mM HEPES, 154 mM NaCl, 5.6 mM KCl, 1 mM MgCl2, 3.6 mM Na2CO3, 2.0 mM glucose, 2.3 mM CaCl2 (pH 7.4)) at 37°C.
The autocorrelation function G(τ) for j different diffusing components in a three-dimensional Gaussian volume element is given by the following equation:
(2) τDj=ω02/4Dj, (3) Qj=σjηjgj, where N j is the average number of molecules of the species j in the volume element, τ Dj is the diffusion time constant of the species j, τ is the correlation time; ω 0 is the radius of the observation volume in the focal plane, z 0 is the radius of the observation volume in the z-direction, D j is the translational diffusion coefficient of the species j; Q j is the quantum yield factor, σ j is the absorption coefficient, η j is the fluorescence quantum yield, and g j is the fluorescence detection efficiency of the species j.
All data points from FCS measurements represent mean values and standard deviations of six independent experiments. The statistical significance of results was proven with one factorial analysis of variance (ANOVA). The results were considered to be significant for P values ≤0.05.

GABAA receptor = conditions: coincubated benzodiazepines, hippocampal neurons, selectively complexes with hindered lateral mobility; cited from earlier work
Excerpt: For the ETA receptor model described here, as well as for the GABAA and the β 2-adrenergic receptor models described elsewhere, the proportion of the fast diffusing receptor-ligand complexes was higher than that of slow diffusing receptor-ligand complexes. These findings ...

ETA receptor = test system: ETA receptor; set-up: method as in PMID 8942650; conditions: ET-1/receptor complexes dissociate slowly; cited from earlier work
[2] = 14.3 nM Alexa532-ET1, equilibrium
[3] = control, 14.3 nM Alexa532-ET1, 45 min, living A10 cells, FCS, mean ± SD of six independent experiments

## CC[C@H](C)[C@H](NC(=O)[C@H](CC(=O)O)NC(=O)[C@H](CC(C)C)NC(=O)[C@H](Cc1c[nH]cn1)NC(=O)[C@@H]1CSSC[C@H](N)C(=O)N[C@@H](CO)C(=O)N[C@H]2CSSC[C@H](NC(=O)[C@H](CCC(=O)O)NC(=O)[C@H](CCCCNC(=O)c3ccc(C4=c5cc6c(c(S(=O)(=O)O)c5Oc5c4cc4c(c5S(=O)(=O)O)NC(C)C4(C)C)=NC(C)C6(C)C)cc3)NC(=O)[C@H](CC(=O)O)NC(=O)[C@H](CCSC)NC(=O)[C@H](CC(C)C)NC(=O)[C@H](CO)NC(=O)[C@H](CO)NC2=O)C(=O)N[C@@H](C(C)C)C(=O)N[C@@H](Cc2ccc(O)cc2)C(=O)N[C@@H](Cc2ccccc2)C(=O)N1)C(=O)N[C@H](C(=O)N[C@@H](Cc1c[nH]c2ccccc12)C(=O)O)[C@@H](C)CC (some centres unmarked) [Alexa532-ET1]
[1]
  inositol phosphate production (in words): Dose-dependent increase of inositol phosphate production
  inositol phosphate (IP1) production, dose-dependent increase up to: 70 to 80 nM
Endothelin ETA receptor; 14.3 nM Alexa532-ET1, 45 min, 20°C
  total binding: 43.5 ± 12.3%
Endothelin ETA receptor; 14.3 nM Alexa532-ET1, 45 min, 20°C, equilibrium
  total bound ligand concentration: 6.22 ± 1.7 nM
Endothelin ETA receptor; [2]
  bound ligand with hindered diffusion (D bound1): 2.3 ± 0.7 nM
  receptor-ligand complexes with unrestricted lateral mobility (D bound2): 3.9 ± 1.0 nM
Endothelin ETA receptor; bound versus total ligand, nonlinear curve fitting
  maximum number of binding sites B max: 7.70 ± 0.74 nM
Endothelin ETA receptor; [3]
  Free L with D free [%]: 56.5 ± 8.5%
  R-L with D bound1 [%] (hindered diffusion, % of total Alexa532-ET1): 16.0 ± 5.2%
  R-L with D bound2 [%] (unrestricted lateral mobility, % of total Alexa532-ET1): 27.5 ± 7.0%
Endothelin ETA receptor; receptor-ligand complex in plasma membrane, fast, 14.3 nM, 45 min, 20°C, n = 6
  diffusion time constant τ bound2: 1.8 ± 0.2 ms
Endothelin ETA receptor; receptor-ligand complex in plasma membrane, slow, 14.3 nM, 45 min, 20°C, n = 6
  diffusion time constant τ bound1: 63.6 ± 41.6 ms
Endothelin ETA receptor; receptor-ligand complexes with hindered lateral mobility, calculated from τ bound1
  diffusion coefficient D bound1: 0.16 ± 0.06 μm^2/s
Endothelin ETA receptor; receptor-ligand complexes with unrestricted mobility, calculated from τ bound2
  diffusion coefficient D bound2: 5.6 ± 0.6 μm^2/s
Endothelin ETA receptor; saturation of Alexa532-ET1 binding, 5–55 nM, 45 min
  total concentration at which binding saturates: approximately 35 nM
Free diffusing Alexa532-ET1 in solution, n = 6
  diffusion time constant τ free: 95.6 ± 9.0 μs
Free diffusing ligand, calculated from τ free using equation (2)
  diffusion coefficient D free: 104.2 ± 9.0 μm^2/s

## Cc1ncc2n1-c1ccc(Cl)cc1C(c1ccccc1F)=NC2 [midazolam]
GABAA receptor
  effect on Alexa532-muscimol binding (in words): increased binding of Alexa532-muscimol

## Endothelin-1 [ET-1, reference compound]
ETA receptor
  incubation time necessary to reach thermodynamic equilibrium: more than 20 h
[1]
  inositol phosphate (IP1) production, dose-dependent increase up to: 70 to 80 nM
